According to US12390441B2, “Immunomodulating o-het/aryl azalides” (Zoetis Services LLC, priority 2020, dated 2025):

Columns and labels:
[1] = system: Bovine primary cells (PBMCs, PMN/neutrophils) and tissue (trachea, lung) protein homogenates; experiment: Binding partner identification (NPOT, mass spectrometry); settings: as compared to gamithromycin
Experimental: To further characterize the direct activity of the compounds of the invention, experiments to identify the drug's direct binding host partners(s) were performed with the aim of identifying the potential biological targets. Bovine primary cells (peripheral blood mononuclear cells [PBMCs] and polymorphonuclear cells [PMN/neutrophils]) and tissue (trachea, lung) protein homogenates were mixed with M9 and the macrolide, gamithromicin as a comparator. Tissue interactions were allowed to form using a heterogeneous assembly method (nematic protein organization technique, NPOT; Inoviem Scientific); and traditional western blots to identify native-structure proteins bound to the compound. Mass spectrometry analysis identified eight proteins involved in the interaction with M9 as compared to gamithromycin. The antibacterial macrolide gamithromycin was used as a comparator to differentiate specific binding to M9. These proteins were considered to be either direct binding partners of the drug or closely involved in the drug:target interaction (Table 6).

[2] = system: IL-6; experiment: Plasma IL-6 biomarker in bovine M. haemolytica challenge
[3] = system: natural BRD infection; experiment: Natural bovine respiratory disease study; type: in vivo, beef calves; settings: 14-day observation
Experimental: The primary clinical endpoint for efficacy was treatment failure/success over a 14-day observation period. Clinically normal beef calves (150-200 kg) at moderate risk for BRD were dosed on arrival to the feedlot. Animals (N=114/group) received saline (T01), 5 mg/kg M9 (T02) or 10 mg/kg M9 (T03); or Zactran (T04). […] Bacterial isolates were collected at necropsy and MICs were evaluated (Table 4).

[4] = target: T1, LCN2 (Bos taurus, UniProt A0AAA9TIZ6); experiment: Surface plasmon resonance (SPR), KD; type: binding; settings: biologically relevant pH
T1 sequence (A0AAA9TIZ6 1-200): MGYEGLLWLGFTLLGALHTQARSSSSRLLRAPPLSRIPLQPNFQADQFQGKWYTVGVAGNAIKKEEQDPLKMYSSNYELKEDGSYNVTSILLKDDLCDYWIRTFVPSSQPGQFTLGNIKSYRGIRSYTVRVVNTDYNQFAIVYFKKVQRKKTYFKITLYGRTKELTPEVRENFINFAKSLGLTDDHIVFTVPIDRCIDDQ
Description: (§1) In order to add further clarity to binding partner identification, surface plasma resonance (SPR) technology was used. […] These targets were unique to this drug as compared to gamithromycin, a macrolide antibiotic used in the treatment of BRD. Both targets fit the paradigm that the immunological mechanism of action is linked to the pathways that are both of key importance as being dysregulated in BRD and modulated by M9. LCN2 is expressed by neutrophils upon activation of toll-like receptors (TLRs) and is a component of the innate inflammatory response. […] Very little information exists to date on SLAMF9. It is a member of a family of signal adaptor proteins that is thought to lack signal transduction capabilities.
(§2) KD is the equilibrium dissociation constant that was used to present the drug/target affinity. The identified targets associated with drug were measured by surface plasmon resonance (SPR) to define the KD.

[5] = target: SLAMF9 (Bos taurus, UniProt E1BNF9); experiment: Surface plasmon resonance (SPR), KD; type: binding; settings: biologically relevant pH
Description: as §1, §2

[6] = system: M. haemolytica (OSU-012103-BHI); settings: 10 mg/kg
[7] = system: IL-1β; experiment: Whole blood assay, LPS stimulation, MSD cytokine detection; type: cell-based, bovine; settings: top dose 500 μM; cellular toxicity signal

Chain of SLAMF9 (E1BNF9 1-289): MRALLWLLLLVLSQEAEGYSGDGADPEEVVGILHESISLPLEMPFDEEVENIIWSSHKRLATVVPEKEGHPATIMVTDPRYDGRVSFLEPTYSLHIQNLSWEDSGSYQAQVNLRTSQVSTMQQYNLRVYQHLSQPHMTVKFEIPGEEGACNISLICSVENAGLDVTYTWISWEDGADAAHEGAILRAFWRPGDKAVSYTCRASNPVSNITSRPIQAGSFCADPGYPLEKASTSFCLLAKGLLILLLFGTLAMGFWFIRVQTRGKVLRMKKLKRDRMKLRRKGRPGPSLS

## CCCNC[C@]1(O)[C@H](C)O[C@@H](O[C@H]2[C@H](C)[C@@H](O[C@@H]3O[C@H](C)C[C@H](NC)[C@H]3O)[C@](C)(O)C[C@@H](C)CN[C@H](C)[C@@H](O)[C@](C)(O)[C@@H](CC)OC(=O)[C@@H]2C)C[C@@]1(C)OC [Example M9, (2R,3S,4R,5R,8R,10R,11R,12S,13S,14R)-2-ethyl-3,4,10-trihydroxy-13-(((2R,4R,5S,6S)-5-hydroxy-4-methoxy-4,6-dimethyl-5-((propylamino)methyl)-tetrahydro-2H-pyran-2-yl)oxy)-11-(((2S,3R,4S,6R)-3-hydroxy-6-methyl-4-(methylamino)tetrahydro-2H-pyran-2-yl)oxy)-3,5,8,10,12,14-hexamethyl-1-oxa-6-azacyclopentadecan-15-one]
[1]
  proteins involved in the interaction: eight
[2]
  IL-6 levels: significantly reduced
[3]; 5 mg/kg (T02)
  Percent failure (treatment failure): 19.3%
[3]; 10 mg/kg (T03)
  Percent failure (treatment failure): 8.8%
[4]
  drug/target binding, LCN2: direct binding targets
[5]
  drug/target binding, SLAMF9: direct binding targets
[6]; inhaled or nasal
  lung lesion scores: 29
[6]; separate study, vs. saline 38.9%
  mortality: 13%
[7]
  overstimulation of IL-1B: > 500 µM
